The results in this text go back to patent publication US9884868B2, “TGF-beta inhibitors” (Rigel Pharmaceuticals, Inc., priority 2015, dated 2018).

This experiment concerns the target HIS-TGF-βR1 T204D (Homo sapiens (Human), UniProt P36897, T204D). Briefly: HTRF probe displacement assay with HIS-TGF-βR1 T204D. To be noted: read-out: TGFbr1 IC50; HTRF probe displacement, 1 nM HIS-TGF-βR1 T204D, 1 hour at room temperature. In general terms: In TR-FRET formats the signal depends on donor and acceptor labels being close together.

Counter-ions that a name gives are not always drawn.

Chain of HIS-TGF-βR1 T204D (P36897 34-503 T204D): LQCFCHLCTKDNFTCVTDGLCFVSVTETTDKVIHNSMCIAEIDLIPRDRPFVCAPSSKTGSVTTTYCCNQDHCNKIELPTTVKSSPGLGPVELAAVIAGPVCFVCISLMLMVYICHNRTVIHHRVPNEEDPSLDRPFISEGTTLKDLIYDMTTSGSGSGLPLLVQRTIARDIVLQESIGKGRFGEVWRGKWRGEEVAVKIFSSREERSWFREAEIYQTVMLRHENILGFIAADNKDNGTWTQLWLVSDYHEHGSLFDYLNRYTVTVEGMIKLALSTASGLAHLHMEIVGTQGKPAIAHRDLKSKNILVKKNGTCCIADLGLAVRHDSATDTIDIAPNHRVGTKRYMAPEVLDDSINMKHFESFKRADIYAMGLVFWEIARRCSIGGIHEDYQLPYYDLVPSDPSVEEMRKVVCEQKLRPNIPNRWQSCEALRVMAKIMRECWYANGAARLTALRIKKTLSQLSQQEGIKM

What is called IC50 is the concentration that gives 50% inhibition. On to `Cc1nc(-c2ccc(F)cc2)c(-c2ccc3ncc(C(N)=O)n3c2)n1CC(F)F` [Example 272′, 6-(1-(2,2-difluoroethyl)-4-(4-fluorophenyl)-2-methyl-1H-imidazol-5-yl)imidazo[1,2-a]pyridine-3-carboxamide], for which the IC50 was determined as 10.4 nM.

Turning to `Cc1nc(-c2ccc(F)cc2)c(-c2ccc3[nH]ncc3c2)n1CC(F)F` [Example 273′, 5-(1-(2,2-difluoroethyl)-4-(4-fluorophenyl)-2-methyl-1H-imidazol-5-yl)-1H-indazole], the IC50 amounted to 29.6 nM.

On to `CC(O)c1cnc2ccc(-c3c(-c4ccc(F)cc4)ncn3CC(F)F)cn12` (stereo not drawn) [Example 274′, 1-(6-(1-(2,2-difluoroethyl)-4-(4-fluorophenyl)-1H-imidazol-5-yl)imidazo[1,2-a]pyridin-3-yl)ethanol], for which the IC50 turned out to be 137 nM.

For the compound `Fc1ccc(-c2ncn(CC(F)F)c2-c2ccc3ncc(C(F)F)n3c2)cc1` [Example 277′, 6-(1-(2,2-difluoroethyl)-4-(4-fluorophenyl)-1H-imidazol-5-yl)-3-(difluoromethyl)imidazo [1,2-a]pyridine], the IC50 was 20.9 nM.

On to `CC(C)(O)c1cnc2ccc(-c3c(-c4ccc(F)cc4)ncn3CC(F)F)cn12` [Example 278′], for which the half-inhibitory concentration (IC50) came to 184 nM.

Regarding `Fc1ccc(-c2ncn(CC(F)F)c2-c2ccc3nncn3c2)cc1` [Example 281′, 6-(1-(2,2-difluoroethyl)-4-(4-fluorophenyl)-1H-imidazol-5-yl)-[1,2,4]triazolo[4,3-a]pyridine], the IC50 turned out to be 522 nM.

Regarding `Fc1ccc(-c2ncn(CC(F)F)c2-c2ccn3ncnc3c2)cc1` [Example 282′, 7-(1-(2,2-difluoroethyl)-4-(4-fluorophenyl)-1H-imidazol-5-yl)-[1,2,4]triazolo[1,5-a]pyridine], the IC50 turned out to be 12.9 nM.

`NC(=O)c1cnc2ccc(-c3c(-c4ccc(F)cc4)nc4n3CCC4)cn12` [Example 283′, 6-(2-(4-fluorophenyl)-6,7-dihydro-5H-pyrrolo[1,2-a]imidazol-3-yl)imidazo[1,2-a]pyridine-3-carboxamide]: the IC50 was 0.9 nM.

In the case of `Fc1ccc(-c2ncn(CC(F)F)c2-c2ccc3ncc(C4CC4)n3c2)cc1` [Example 285′, 3-cyclopropyl-6-(1-(2,2-difluoroethyl)-4-(4-fluorophenyl)-1H-imidazol-5-yl)imidazo[1,2-a]pyridine], the half-maximal inhibitory concentration (IC50) turned out to be 38.8 nM.

With `Fc1ccc(-c2ncn(CC(F)F)c2-c2ccc3ncc(F)n3c2)cc1` [Example 288′, 6-(1-(2,2-difluoroethyl)-4-(4-fluorophenyl)-1H-imidazol-5-yl)-3-fluoroimidazo[1,2-a]pyridine], the concentration for half-maximal inhibition (IC50) came to 56.7 nM.

For `NC(=O)c1cnc2ccc(-c3c(-c4ccc(F)cc4)nc4n3CCNC4)cn12` [Example 290′, 6-(2-(4-fluorophenyl)-5,6,7,8-tetrahydroimidazo[1,2-60]pyrazin-3-yl)imidazo[1,2-a]pyridine-3-carboxamide], the IC50 was determined as 21.6 nM.

For the compound `CN1CCn2c(nc(-c3ccc(F)cc3)c2-c2ccc3ncc(C(N)=O)n3c2)C1` [Example 293′, 6-(2-(4-fluorophenyl)-7-methyl-5,6,7,8-tetrahydroimidazo[1,2-a]pyrazin-3-yl)imidazo[1,2-a]pyridine-3-carboxamide], the IC50 came to 43.3 nM.

As for `CC(=O)Nc1nc(-c2ccc(F)cc2)c(-c2ccc3nccn3c2)[nH]1` [Example 295′, N-(4-(4-fluorophenyl)-5-(imidazo[1,2-a]pyridin-6-yl)-1H-imidazol-2-yl)acetamide], the IC50 was found to be 55 nM.

For `Nc1nc(-c2ccc(F)cc2)c(-c2ccc3nccn3c2)n1CC(F)F` [Example 296′, 1-(2,2-difluoroethyl)-4-(4-fluorophenyl)-5-(imidazo[1,2-a]pyridin-6-yl)-1H-imidazol-2-amine, 2 HCl], the concentration for half-maximal inhibition (IC50) amounted to 109 nM.

For the compound `N#Cc1cnc2ccc(-c3c(-c4ccc(F)cc4)nc(N)n3CC(F)F)cn12` [Example 298′, 6-(2-amino-1-(2,2-difluoroethyl)-4-(4-fluorophenyl)-1H-imidazol-5-yl)imidazo[1,2-a]pyridine-3-carbonitrile], the IC50 was determined as 44.8 nM.
